Results from patent US8044069B2, “Compounds as calcium channel blockers” (Abbott Laboratories, priority 2008, dated 2011).

Target: human Cav2.2 (Homo sapiens, UniProt Q00975)
Assay: Assessment of calcium channel activity using FLIPR (Ca2+ influx in IMR32 cells)
Assay type: cell-based
Conditions: IMR32 cells endogenously expressing human Cav2.2; 60 minute pre-incubation; 2 μM nifedipine; depolarized with 80 mM KCl, 5 mM CaCl2
Protocol: (i) In Vitro Methods—Assessment of Calcium Channel Activity Using FLIPR:
The IMR32 cells were maintained in MEM media containing 10% (v/v) FBS, 1% (v/v) antibiotic/antimitotic, 1% (v/v) sodium pyruvate and 1% (v/v) MEM NEAA. Following dissociation in 0.05% (v/v) trypsin/EDTA, cells were seeded into black 1×96-well plates (Corning Cellbind) at a density of 1-1.2×10^5 cells/well and incubated in the maintenance media above for 48 hours at 37° C. […] After dye loading and a subsequent 60 minute pre-incubation with compounds (full log dilutions from 10 μM to 0.1 nM) in the presence of 1.3 mM CaCl2 and 2 μM nifedipine to block endogenous L-type channels, the external Ca^2+ concentration was increased to 5 mM CaCl2 and the cells concomitantly depolarized with 80 mM KCl to assay channel activity. To determine the IC50 values, the percent inhibition of the compound at each concentration was determined relative to the activity in the absence of inhibitor, and data was fitted using non-linear regression sigmoidal dose response curve analysis with GraphPad Prism®.

Chain of human Cav2.2 (Q00975 whole entry): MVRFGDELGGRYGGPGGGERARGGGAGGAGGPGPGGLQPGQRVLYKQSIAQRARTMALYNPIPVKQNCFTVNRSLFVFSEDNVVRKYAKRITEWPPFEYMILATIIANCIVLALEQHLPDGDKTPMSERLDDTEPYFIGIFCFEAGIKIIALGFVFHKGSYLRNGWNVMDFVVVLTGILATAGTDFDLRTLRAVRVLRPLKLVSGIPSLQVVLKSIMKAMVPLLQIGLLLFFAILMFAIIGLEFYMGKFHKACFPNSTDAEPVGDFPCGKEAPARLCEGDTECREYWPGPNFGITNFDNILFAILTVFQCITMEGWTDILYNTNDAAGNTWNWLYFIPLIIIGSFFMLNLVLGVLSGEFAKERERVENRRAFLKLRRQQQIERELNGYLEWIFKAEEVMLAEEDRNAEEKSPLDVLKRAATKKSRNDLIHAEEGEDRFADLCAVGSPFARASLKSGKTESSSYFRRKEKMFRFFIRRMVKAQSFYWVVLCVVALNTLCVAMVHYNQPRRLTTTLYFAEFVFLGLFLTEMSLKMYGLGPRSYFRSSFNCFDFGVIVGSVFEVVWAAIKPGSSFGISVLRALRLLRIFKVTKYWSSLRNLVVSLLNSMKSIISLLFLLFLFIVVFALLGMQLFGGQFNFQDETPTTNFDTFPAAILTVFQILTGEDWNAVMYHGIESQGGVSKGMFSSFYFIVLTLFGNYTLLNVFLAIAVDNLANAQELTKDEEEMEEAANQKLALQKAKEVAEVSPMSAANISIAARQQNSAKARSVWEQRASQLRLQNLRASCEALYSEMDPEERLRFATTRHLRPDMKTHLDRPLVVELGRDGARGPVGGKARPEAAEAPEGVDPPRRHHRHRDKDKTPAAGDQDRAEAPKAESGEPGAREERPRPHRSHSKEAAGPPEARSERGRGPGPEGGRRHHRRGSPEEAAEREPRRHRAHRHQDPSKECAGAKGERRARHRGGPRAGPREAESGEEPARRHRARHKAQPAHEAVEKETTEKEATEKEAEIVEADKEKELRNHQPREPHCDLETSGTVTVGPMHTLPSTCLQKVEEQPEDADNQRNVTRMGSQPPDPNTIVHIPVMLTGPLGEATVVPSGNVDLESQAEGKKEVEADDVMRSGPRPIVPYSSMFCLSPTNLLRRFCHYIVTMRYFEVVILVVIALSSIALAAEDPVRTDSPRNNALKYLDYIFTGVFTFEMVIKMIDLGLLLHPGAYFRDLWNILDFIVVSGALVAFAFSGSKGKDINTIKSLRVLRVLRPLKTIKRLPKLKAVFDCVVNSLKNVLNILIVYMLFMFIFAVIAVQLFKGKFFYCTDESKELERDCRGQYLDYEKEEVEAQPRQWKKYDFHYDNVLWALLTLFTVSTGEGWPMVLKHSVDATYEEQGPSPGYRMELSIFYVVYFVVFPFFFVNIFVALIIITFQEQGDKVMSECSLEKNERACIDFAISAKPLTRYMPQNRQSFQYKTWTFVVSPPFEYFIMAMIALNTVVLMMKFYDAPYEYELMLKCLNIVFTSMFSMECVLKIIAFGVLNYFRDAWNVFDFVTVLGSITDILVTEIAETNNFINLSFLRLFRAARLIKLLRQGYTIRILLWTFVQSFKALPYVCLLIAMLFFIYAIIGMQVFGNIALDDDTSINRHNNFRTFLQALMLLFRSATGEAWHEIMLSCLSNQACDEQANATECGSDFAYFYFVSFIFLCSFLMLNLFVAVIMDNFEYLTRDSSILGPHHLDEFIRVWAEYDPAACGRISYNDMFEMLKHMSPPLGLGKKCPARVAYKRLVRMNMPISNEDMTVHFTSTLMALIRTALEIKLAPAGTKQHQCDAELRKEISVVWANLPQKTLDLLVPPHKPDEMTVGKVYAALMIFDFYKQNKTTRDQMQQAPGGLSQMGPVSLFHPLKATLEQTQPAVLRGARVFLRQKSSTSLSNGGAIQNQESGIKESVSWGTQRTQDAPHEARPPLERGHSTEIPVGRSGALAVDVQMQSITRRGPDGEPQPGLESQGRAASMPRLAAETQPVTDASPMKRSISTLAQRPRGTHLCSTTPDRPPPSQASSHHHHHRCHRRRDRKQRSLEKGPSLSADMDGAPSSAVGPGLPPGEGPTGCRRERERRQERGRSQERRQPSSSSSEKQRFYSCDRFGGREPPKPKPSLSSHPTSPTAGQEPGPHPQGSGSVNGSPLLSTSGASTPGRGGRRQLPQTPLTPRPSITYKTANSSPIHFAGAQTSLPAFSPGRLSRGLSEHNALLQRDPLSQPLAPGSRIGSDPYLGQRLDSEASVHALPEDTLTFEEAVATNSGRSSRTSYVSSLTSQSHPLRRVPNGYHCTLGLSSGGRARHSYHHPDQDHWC
Chain of human Cav2.2 (P54289 25-951 partner limits assumed): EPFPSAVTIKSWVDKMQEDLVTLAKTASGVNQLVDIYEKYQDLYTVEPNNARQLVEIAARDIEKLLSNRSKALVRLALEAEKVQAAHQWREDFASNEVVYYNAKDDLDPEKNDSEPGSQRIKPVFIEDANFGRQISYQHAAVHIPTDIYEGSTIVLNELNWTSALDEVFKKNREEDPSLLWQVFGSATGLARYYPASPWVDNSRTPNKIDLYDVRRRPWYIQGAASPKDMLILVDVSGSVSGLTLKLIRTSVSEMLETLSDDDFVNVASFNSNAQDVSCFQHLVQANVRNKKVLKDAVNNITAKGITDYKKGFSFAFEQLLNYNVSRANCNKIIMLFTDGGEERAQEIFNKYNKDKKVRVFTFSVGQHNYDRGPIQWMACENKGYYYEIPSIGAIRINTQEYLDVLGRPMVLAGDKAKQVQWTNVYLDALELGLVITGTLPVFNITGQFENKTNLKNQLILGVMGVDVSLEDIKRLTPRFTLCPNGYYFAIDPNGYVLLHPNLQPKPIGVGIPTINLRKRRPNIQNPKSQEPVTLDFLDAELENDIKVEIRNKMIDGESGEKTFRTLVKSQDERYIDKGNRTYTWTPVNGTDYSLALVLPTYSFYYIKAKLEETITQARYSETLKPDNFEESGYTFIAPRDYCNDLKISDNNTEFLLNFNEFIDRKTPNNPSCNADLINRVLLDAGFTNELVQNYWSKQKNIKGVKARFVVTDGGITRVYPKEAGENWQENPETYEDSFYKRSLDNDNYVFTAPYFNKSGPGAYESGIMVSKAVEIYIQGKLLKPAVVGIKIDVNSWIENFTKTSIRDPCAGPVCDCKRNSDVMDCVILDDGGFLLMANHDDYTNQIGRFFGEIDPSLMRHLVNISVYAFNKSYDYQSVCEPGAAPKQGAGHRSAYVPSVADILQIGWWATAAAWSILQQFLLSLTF
Chain of human Cav2.2 (P54289 952-1103 partner limits assumed): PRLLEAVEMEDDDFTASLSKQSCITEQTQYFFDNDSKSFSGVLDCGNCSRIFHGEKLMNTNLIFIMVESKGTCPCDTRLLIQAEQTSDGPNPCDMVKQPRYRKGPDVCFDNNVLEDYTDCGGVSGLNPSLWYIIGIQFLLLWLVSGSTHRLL
Chain of human Cav2.2 (P54284 whole entry partner): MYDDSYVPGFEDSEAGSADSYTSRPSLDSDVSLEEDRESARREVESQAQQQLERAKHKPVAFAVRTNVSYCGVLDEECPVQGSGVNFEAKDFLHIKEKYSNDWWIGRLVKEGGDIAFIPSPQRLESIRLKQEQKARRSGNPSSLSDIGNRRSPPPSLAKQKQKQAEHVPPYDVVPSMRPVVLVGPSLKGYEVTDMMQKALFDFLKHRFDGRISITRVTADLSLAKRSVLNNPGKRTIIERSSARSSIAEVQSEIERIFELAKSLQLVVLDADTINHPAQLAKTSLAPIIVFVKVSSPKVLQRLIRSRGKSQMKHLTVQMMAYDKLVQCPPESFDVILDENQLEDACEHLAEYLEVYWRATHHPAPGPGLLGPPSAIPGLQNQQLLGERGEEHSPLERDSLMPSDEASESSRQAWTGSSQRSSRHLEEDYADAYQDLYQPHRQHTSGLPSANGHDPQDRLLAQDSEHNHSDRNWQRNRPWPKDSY

Compound	IC50 [µM]
O=C1N(Cc2nc(-c3ccc(Br)cc3)no2)CCC1(c1ccc(F)cc1)c1ccc(F)cc1 [Example 233, 1-{[3-(4-bromophenyl)-1,2,4-oxadiazol-5-yl]methyl}-3,3-bis(4-fluorophenyl)pyrrolidin-2-one]	6.29
O=C(CN1CCCC(c2ccc(F)cc2)(c2ccc(F)cc2)C1=O)N1CCC(c2ccccc2)(c2ccccc2)CC1 [Example 173, 1-[2-(4,4-diphenylpiperidin-1-yl)-2-oxoethyl]-3,3-bis(4-fluorophenyl)piperidin-2-one]	3.88
O=C1N(Cc2nc(-c3ccc(C(F)(F)F)nc3)no2)CCC1(c1ccc(F)cc1)c1ccc(F)cc1 [Example 212, 3,3-bis(4-fluorophenyl)-1-({3-[6-(trifluoromethyl)pyridin-3-yl]-1,2,4-oxadiazol-5-yl}methyl)pyrrolidin-2-one]	2.63
O=C(CN1CCC(c2ccc(F)cc2)C1=O)N1CCc2cc(Cl)ccc2C1 (centres unmarked) [Example 257, 1-[2-(6-chloro-3,4-dihydroisoquinolin-2(1H)-yl)-2-oxoethyl]-3-(4-fluorophenyl)pyrrolidin-2-one]	6.16
O=C(CN1CCC(c2ccc(F)cc2)(c2ccc(F)cc2)C1=O)N1CCC(C(O)(c2ccc(F)cc2)c2ccc(F)cc2)CC1 [Example 271, 1-(2-{4-[bis(4-fluorophenyl)(hydroxy)methyl]piperidin-1-yl}-2-oxoethyl)-3,3-bis(4-fluorophenyl)pyrrolidin-2-one]	2.57
O=C(CN1CCCC(c2ccccc2)(c2ccccc2)C1=O)N1CCCCC1c1ccc(F)cc1 (centres unmarked) [Example 74, 1-{2-[2-(4-fluorophenyl)piperidin-1-yl]-2-oxoethyl}-3,3-diphenylpiperidin-2-one]	2.68
O=C1N(Cc2nc(-c3cc(F)cc(F)c3)no2)CCC1(c1ccccc1)c1ccccc1 [Example 215, 1-{[3-(3,5-difluorophenyl)-1,2,4-oxadiazol-5-yl]methyl}-3,3-diphenylpyrrolidin-2-one]	6.89
O=C1C(c2ccccc2)CCCN1Cc1nc(-c2ccc(C(F)(F)F)cc2)no1 (centres unmarked) [Example 181, 3-phenyl-1-({3-[4-(trifluoromethyl)phenyl]-1,2,4-oxadiazol-5-yl}methyl)piperidin-2-one]	3.27
O=C(CN1CCC(c2ccc(F)cc2)C1=O)N1Cc2ccc(F)cc2C1 (centres unmarked) [Example 227, 1-[2-(5-fluoro-1,3-dihydro-2H-isoindol-2-yl)-2-oxoethyl]-3-(4-fluorophenyl)pyrrolidin-2-one]	12.1
O=C1N(S(=O)(=O)c2ccc(C(F)(F)F)cc2Cl)CCC1(c1ccccc1)c1ccccc1 [Example 151, 1-{[2-chloro-4-(trifluoromethyl)phenyl]sulfonyl}-3,3-diphenylpyrrolidin-2-one]	18.3
O=C1N(Cc2nc(COc3ccc(Cl)cc3)no2)CCCC1(c1ccccc1)c1ccccc1 [Example 263, 1-({3-[(4-chlorophenoxy)methyl]-1,2,4-oxadiazol-5-yl}methyl)-3,3-diphenylpiperidin-2-one]	3.49
Cn1ccc(CNC(=O)CN2CCC(c3ccccc3)(c3ccccc3)C2=O)n1 [Example 4, N-[(1-methyl-1H-pyrazol-3-yl)methyl]-2-(2-oxo-3,3-diphenylpyrrolidin-1-yl)acetamide]	29.8
O=C1N(Cc2nc(-c3ccc(C(F)(F)F)cc3)no2)CCCC1(c1ccc(F)cc1)c1ccc(F)cc1 [Example 191, 3,3-bis(4-fluorophenyl)-1-({3-[4-(trifluoromethyl)phenyl]-1,2,4-oxadiazol-5-yl}methyl)piperidin-2-one]	6.87
CN(CCCN1CCCC(c2ccccc2)(c2ccccc2)C1=O)CCc1ccccc1 [Example 117, 1-{3-[methyl(2-phenylethyl)amino]propyl}-3,3-diphenylpiperidin-2-one]	3.46
O=C1[C@H](c2ccc(F)cc2)CCN1Cc1nc(-c2ccc(C(F)(F)F)cc2)no1 (single isomer, unassigned) [Example 236]	2.75
O=C1N(Cc2nc(-c3ccncc3)no2)CCC1(c1ccccc1)c1ccccc1 [Example 222, 3,3-diphenyl-1-[(3-pyridin-4-yl-1,2,4-oxadiazol-5-yl)methyl]pyrrolidin-2-one]	5.43
N-(1-benzhydryl-3-methylpyrrolidin-3-yl)-2-(2-oxo-3,3-diphenylpiperidin-1-yl)acetamide [Example 86]	2.2
Cc1ccc(-c2noc(CN3CCC(c4ccccc4)(c4ccccc4)C3=O)n2)cc1 [Example 195, 1-{[3-(4-methylphenyl)-1,2,4-oxadiazol-5-yl]methyl}-3,3-diphenylpyrrolidin-2-one]	3.57
O=C(CN1CCCC(c2ccccc2)(c2ccccc2)C1=O)N1CCC(c2ccc(F)cc2)(c2ccc(F)cc2)C1 [Example 205, 1-{2-[3,3-bis(4-fluorophenyl)pyrrolidin-1-yl]-2-oxoethyl}-3,3-diphenylpiperidin-2-one]	3.32
O=C(CN1CCCC(c2ccccc2)(c2ccccc2)C1=O)N1CCc2ccccc2C1 [Example 260, 1-[2-(3,4-dihydroisoquinolin-2(1H)-yl)-2-oxoethyl]-3,3-diphenylpiperidin-2-one]	7.12

Continued by falling IC50, values first:

IC50 [µM]	Compound
2.16	O=C(CN1CCC(c2ccccc2)(c2ccccc2)C1=O)N1CCC(c2ccc(F)cc2)(c2ccc(F)cc2)C1 [Example 203, 1-{2-[3,3-bis(4-fluorophenyl)pyrrolidin-1-yl]-2-oxoethyl}-3,3-diphenylpyrrolidin-2-one]
1.9	COc1ccc(C2(c3ccc(OC)cc3)CCCN(CCN(C)CCc3cccc(OC)c3)C2=O)cc1 [Example 124, 3,3-bis(4-methoxyphenyl)-1-{2-[[2-(3-methoxyphenyl)ethyl](methyl)amino]ethyl}piperidin-2-one]
1.67	COc1cccc(CCN(C)CCN2CCCC(c3ccc(F)cc3)(c3ccc(F)cc3)C2=O)c1 [Example 120, 3,3-bis(4-fluorophenyl)-1-{2-[[2-(3-methoxyphenyl)ethyl](methyl)amino]ethyl}piperidin-2-one]
1.49	COc1ccc(C2(c3ccc(OC)cc3)CCCN(CCN(C)CCc3ccc(OC)cc3OC)C2=O)cc1 [Example 126, 1-{2-[[2-(2,4-dimethoxyphenyl)ethyl](methyl)amino]ethyl}-3,3-bis(4-methoxyphenyl)piperidin-2-one]
1.25	O=C1N(CCCN2CCN(c3cccc(C(F)(F)F)c3)CC2)CCCC1(c1ccccc1)c1ccccc1 [Example 140, 3,3-diphenyl-1-(3-{4-[3-(trifluoromethyl)phenyl]piperazin-1-yl}propyl)piperidin-2-one]
1.14	COc1cccc(C2(C(C)C)CCCN(CCCN(C)CCc3ccc(F)cc3)C2=O)c1 (centres unmarked) [Example 129, 1-{3-[[2-(4-fluorophenyl)ethyl](methyl)amino]propyl}-3-isopropyl-3-(3-methoxyphenyl)piperidin-2-one]
1.13	O=C(CN1CCC(c2ccccc2)(c2ccccc2)C1=O)N1CCC(NCc2cccc(C(F)(F)F)c2)CC1 [Example 42, 1-[2-oxo-2-(4-{[3-(trifluoromethyl)benzyl]amino}piperidin-1-yl)ethyl]-3,3-diphenylpyrrolidin-2-one]
1.03	O=C(CN1CCCC(c2ccccc2)(c2ccccc2)C1=O)NC1CN(C(c2ccccc2)c2ccccc2)C1 [Example 176, N-(1-benzhydrylazetidin-3-yl)-2-(2-oxo-3,3-diphenylpiperidin-1-yl)acetamide]
1.03	O=C(CN1CCC(c2ccccc2)(c2ccccc2)C1=O)N1CCN(Cc2cccc(C(F)(F)F)c2)CC1 [Example 37, 1-(2-oxo-2-{4-[3-(trifluoromethyl)benzyl]piperazin-1-yl}ethyl)-3,3-diphenylpyrrolidin-2-one]
0.96	O=C(CN1CCC(c2ccc(F)cc2)(c2ccc(F)cc2)C1=O)N1C[C@@H]2CCCN(Cc3cccc(C(F)(F)F)c3)[C@@H]2C1 [Example 210, 3,3-bis(4-fluorophenyl)-1-(2-oxo-2-{(4aS,7aS)-1-[3-(trifluoromethyl)benzyl]octahydro-6H-pyrrolo[3,4-b]pyridin-6-yl}ethyl)pyrrolidin-2-one]
0.9	O=C(CN1CCC(c2ccccc2)(c2ccccc2)C1=O)N1CCN(Cc2c(Cl)cccc2Cl)CC1 [Example 36, 1-{2-[4-(2,6-dichlorobenzyl)piperazin-1-yl]-2-oxoethyl}-3,3-diphenylpyrrolidin-2-one]
0.89	O=C(CN1CCC(c2ccccc2)(c2ccccc2)C1=O)NC1(c2ccccc2)CCC1 [Example 11, 2-(2-oxo-3,3-diphenylpyrrolidin-1-yl)-N-(1-phenylcyclobutyl)acetamide]
0.87	O=C(CN1CCC(c2ccccc2)(c2ccccc2)C1=O)NCC(c1ccccc1)c1ccccc1 [Example 15, N-(2,2-diphenylethyl)-2-(2-oxo-3,3-diphenylpyrrolidin-1-yl)acetamide]
0.86	O=C(CN1CCC(c2ccc(F)cc2)(c2ccc(F)cc2)C1=O)N1CC2(CCN(Cc3ccc(C(F)(F)F)cc3)CC2)C1 [Example 153, 3,3-bis(4-fluorophenyl)-1-(2-oxo-2-{7-[4-(trifluoromethyl)benzyl]-2,7-diazaspiro[3.5]non-2-yl}ethyl)pyrrolidin-2-one]
0.73	O=C(CN1CCC(c2ccc(F)cc2)(c2ccc(F)cc2)C1=O)N1CC2(CCN(Cc3ccccc3)CC2)C1 [Example 152, 1-[2-(7-benzyl-2,7-diazaspiro[3.5]non-2-yl)-2-oxoethyl]-3,3-bis(4-fluorophenyl)pyrrolidin-2-one]
